Results reported in US20260325485A1, “COMPOSITIONS AND METHODS FOR TREATING PANCREATITIS” (The United States Government as represented by the …, priority 2022, published 2026).

Tests used:
[1] = system: trypsin; assay: Trypsin activity in Gnptab−/− acinar cells; assay type: cell-based, mouse; conditions: 3 hours; 50 μM CA-074Me or 20 nM BafA1
Method: FIGS. 6A-6R show mechanisms mediating increased trypsin activity in Gnptab−/− pancreas. Trypsin activity and its regulation were analyzed in pancreatic (A, C, and D) tissue, (B and P-R) acinar cells, (E-H and O) lobules, and (I-N) subcellular fractions. In B, acinar cells were incubated for 3 hours without and with 20 nM BafAl or 50 μM CatB inhibitor CA-074Me; in P-R, with the cholesterol chelator methyl-β-cyclodextrin (MCD) at the indicated concentrations. In E-H, pancreatic lobules were double stained for TAP and LC3 or LAMP2; in O, for TAP and filipin. Quantitative colocalization analysis was done as detailed in FIG. 2. Each symbol in A, B, J-N, Q, and R represents an individual mouse or cell preparation (n=3-8 per condition). Each symbol in D, G, and H corresponds to 20 to 30 cells in a different field (n=9-20 fields from 3 WT and 3 KO mice or lobule preparations). Values are mean±SEM. **P<0.01, ***P<0.001 vs. WT tissue/lobules (A, G, and H) or corresponding WT subcellular fraction (K and M). ##P<0.01 vs. no inhibitors (B) or MCD (Q and R). ††P<0.01, †††P<0.001 vs. the other two fractions (L and N). Significance was determined by 2-tailed Student's t test (A, G, and H) or 1-way ANOVA followed by Tukey's multiple comparison test (B, K-N, Q, and R). Scale bars: 10 μm.
Activities of cathepsin (Cat) B and L, caspase-3, trypsin, and lysosomal acid lipase (LAL) were measured in pancreatic tissue or cell homogenates and subcellular fractions with fluorogenic assays using substrates specific for CatB (Z-Arg-Arg-AMC), CatL (Z-Phe-Arg-AMC), caspase-3-like ([…]), trypsin (Boc-Gln-Ala-Arg-AMC), as previously described (1-4, 6, 7); and for LAL (4-methylumbelliferyl oleate), as in (17). In measurements of CatL activity, the assay buffer also contained 50 μM CA-074me, a CatB inhibitor. LAL activity was measured in the absence and presence of the LAL inhibitor lalistat (100 μM) as the difference between these values (17).

[2] = system: cerulein pancreatitis (CER-AP); assay: Drug treatment of cerulein pancreatitis (CER-AP) in WT mice; assay type: in vivo, mouse
Method: FIGS. 10A-10N show deranged cholesterol metabolism causes acinar cell damage, while its normalization ameliorates experimental pancreatitis. (A-D) Cholesterol content and trypsin activity were measured (per mg protein) in WT mouse acinar cells incubated for 1 hour without and with methyl-β-cyclodextrin (MCD; 10 mM) or cholesterol-loaded MCD (MCD-Chol; 200 μg/mL), in the presence or absence of 100 nM CCK. Values are expressed relative to those in cells without MCD/MCD-Chol. (E-J) WT mice received daily i.p. injections of the LXR agonist T0901317 (T09), simvastatin (Sim; 20 mg/kg each), or vehicle. On day 4, mice were subjected to CER-AP and pancreata collected for analyses (see also FIG. 20). Cholesterol content (E), trypsin activity (F), and pancreas histopathology (H&E staining; G) were measured. (H, I, L, and N) IB analysis of markers/mediators of autophagy (LC3, p62), ER stress (CHOP, GRP-78), and mitophagy (Parkin). Ub, ubiquitylated proteins. (J) Mitochondrial fragmentation was assessed by immunostaining for Tom20, as detailed in FIG. 7G. (K and L) Mouse acinar cells were treated for 16 hours with LDL (30 μg/mL) or the combination of LDL and 10 μM U18666A. (M and N) Mice received injections of U18666A as detailed in FIG. 9B. Pancreas histopathology (H&E staining; M) and levels of autophagy markers/mediators (N) were measured. Each symbol in A-F and I represents an individual mouse or cell preparation. Values are mean±SEM from 3 to 7 mice or cell preparations per condition. ^§ P<0.05, ^§§ P<0.01 vs. control cells (without MCD/MCD-Chol). ***P<0.001 vs. saline-treated mice. ^#P<0.05, ^##P<0.01, ^###P<0.001 vs. CER-AP alone (no inhibitors). Significance was determined by 2-tailed Student's t test (A-D) or 1-way ANOVA followed by Tukey's multiple comparison test (E, F, and I). Scale bars: 10 μm.
FIGS. 20A-20C show simvastatin improves cerulein pancreatitis. Mice received daily i.p. injections of simvastatin (Sim; 20 mg/kg) or vehicle (see FIG. 10), and on day 4 were subjected to cerulein pancreatitis (CER-AP). (A) Pancreas histopathology (H&E staining; scale: 10 μm). (B) IB analysis of markers/mediators of autophagy (LC3, p62), ER stress (CHOP), and the MLN64/STARD3 protein mediating cholesterol transfer from LE/Ly to mitochondria. Each IB lane represents an individual mouse; ERK1/2 is the loading control. […] Ub, ubiquitylated proteins. (C) Pancreatitis responses. Values are mean±SEM from 7-13 mice for each condition. ***p<0.001 vs saline control. ^###p<0.001 vs CER-AP alone (no simvastatin). Significance was determined by 1-way ANOVA followed by Tukey's multiple comparisons test.
FIGS. 25A-25C show reducing cholesterol overload greatly ameliorates experimental pancreatitis. CER-AP responses were measured in (A) AclyAac or (C) WT mice treated with simvastatin or bempedoic acid (BemA). (B) Acinar cells were transfected with ACLA (or mock) siRNA and subjected to ex-vivo CCK-AP. Each symbol represents an individual mouse or cell preparation. Values are mean±SE. **p<0.01, ***p<0.001 vs saline treated control mice (or mock transfection); #p<0.05, ##p<0.01, ###p<0.001 vs CER/CCK-AP in control mice (i.e. without inhibitors) or cells.
Cerulein-induced (CER-AP) and L-arginine induced (Arg-AP) acute pancreatitis models were performed in 12-week-old C57BL/6 mice that received 7 hourly i.p. injections of 50 μg/kg cerulein or 3 hourly i.p. injections of 3.3 g/kg Arg; controls received physiologic saline injections. Mice were euthanized for analyses 7 hours after the first cerulein or 24 hours after the first Arg injection. Choline deficient, ethionine-supplemented (CDE) pancreatitis was induced in young (~5-weeks old) female mice fed either CDE or control diet. Mice were euthanized 72 hours after the diet initiation. These models have been described in detail (1-7).
12-week-old WT mice were subjected for 4 consecutive days to daily i.p. injections of 20 mg/kg simvastatin (8,9) or 20 mg/kg T0901317 (10); or 10 mg/kg U18666A for 15 days (11). […]

[3] = system: pancreas; assay: Drug treatment of Gnptab−/− mice: pancreatic total cholesterol; assay type: in vivo, mouse
Method: 12-week-old Gnptab−/− mice were subjected to daily i.p. injections of 20 mg/kg simvastatin or the same dose of T0901317 for 4 or 21 days.
Total cholesterol content was measured with Cholesterol Assay kit per manufacturer's instructions. Samples of mouse pancreas and liver, cell pellet homogenates, subcellular fractions, isolated mitochondria, and serum were diluted in the reaction buffer containing cholesterol probe and incubated at 37° C. for 1 h in the dark. To measure total cholesterol, the samples were subjected to digestion with cholesterol esterase. To measure non-esterified cholesterol, the esterase was omitted from the assay.

[4] = system: acinar cells; assay: Oxygen consumption rate (OCR) of acinar cells, Seahorse; assay type: cell-based, mouse; conditions: etomoxir 40 μM
Method: FIGS. 7A-7Q show Gnptab ablation causes mitochondrial dysfunction in the pancreas. Mitochondrial functional parameters were measured in mitochondria isolated from pancreas (A, D, J, and M) or liver (N-P), in acinar cells (B, C, and I), and pancreatic (E-H, K, and L) and liver (Q) tissues of WT and KO mice. (A and N) Activities of mitochondrial ETC complexes I, II, IV, and V. (B, C, and I) Acinar cell oxygen consumption rates (OCR), reflecting mitochondrial OXPHOS, were measured in basal conditions and after treatment with the B-oxidation inhibitor etomoxir (40 μM), and normalized to total protein in the sample. (B) Representative OCR tracings in acinar cell suspension subjected to consecutive injections of the ATP synthase inhibitor oligomycin (Oligo; 3 μM), protonophore FCCP (2.7 μM), and […] rotenone plus antimycin A (R+A, 5 μM each; to correct for nonmitochondrial respiration). (C and I) ATP-linked respiration was calculated as the difference between basal OCR and that in Oligo-treated cells; the maximal OCR was obtained in FCCP-treated cells. (D and O) Mitochondrial membrane potential (ΔΨm) was measured with a tetraphenyl phosphonium ion (TPP+) electrode. FCCP (5 μM) was added to completely dissipate ΔΨm. (E) ATP was measured in pancreatic tissue homogenate with luciferin-luciferase assay. […] (G) Mitochondrial fragmentation was assessed by changes in Tom20 or VDAC immunostaining pattern, from an interconnected tubular mitochondrial network in WT to a predominantly disjoined/circular one in KO pancreas. […] (K) Long-chain acylcarnitines were measured with LC-MS/GC-MS. […] Significance was determined by 2-tailed Student's t test.
Oxygen consumption rates (OCR) were measured in live acinar cells using Seahorse XFe96, as in (15). […] In all within-set experiments the same volume of cell suspension were used with the same amount of protein; and partial oxygen pressure was monitored to ensure its stability in the cell suspension.

[5] = CER-AP, T0901317 or simvastatin 20 mg/kg i.p. daily

## CCCNC(=O)[C@H]1O[C@@H]1C(=O)N[C@H](C(=O)N1CCC[C@H]1C(=O)OC)[C@@H](C)CC [CA-074Me]
[1]
  Reduction of trypsin activity, Gnptab−/− acinar cells: by half

## O=S(=O)(c1ccccc1)N(CC(F)(F)F)c1ccc(C(O)(C(F)(F)F)C(F)(F)F)cc1 [T0901317]
[2]; CER-AP, 20 mg/kg i.p. daily
  CER-induced increase in MLN64: abrogated
  accumulation of LC3-II: reduced
  accumulation of p62: reduced
  accumulation of ubiquitylated proteins: reduced
  mitochondrial fragmentation (Tom20 IF): normalized
[2]; CER-AP, 20 mg/kg i.p. daily, ER stress
  CHOP levels: decreased
[2]; [5]
  pancreatitis-induced increase in total cholesterol: eliminated
  pancreatitis-induced increase in trypsin activity: eliminated
[2]; H&E, 20 mg/kg i.p. daily
  pancreas histopathology in CER-AP: improved
[2]; discussion statement
  pathologic responses of experimental pancreatitis (impaired autophagy, ER stress and others): reduced
[2]; overall result
  experimental pancreatitis in WT mouse and ex vivo models: ameliorated
[3]; 20 mg/kg i.p. daily for 4 or 21 days
  total cholesterol content in pancreas, Gnptab−/− mice: Neither treatment changed
[3]; even for 3 weeks
  pancreatic total cholesterol, Gnptab−/− mice: failed to decrease

## CCOC(=O)[C@@]1(CCCCCCOc2ccc(Cl)cc2)CO1 [etomoxir]
[4]; Gnptab−/− (KO) acinar cells
  respiration rates, KO: not significantly reduced
[4]; WT acinar cells
  ATP-linked OCR, WT: inhibition
  basal OCR, WT: inhibition
